Experimental data reported in ChEMBL document CHEMBL1201862, “PubChem BioAssay data set” (2004).
Activity calls are given as the source filed them.

Experiments:
[1] = biological target: Mitogen-activated protein kinase 10 (Homo sapiens, UniProt P53779); experiment: Dose response biochemical screening assay for inhibitors of c-Jun N-Terminal Kinase 3 (JNK3). [Related pubchem assays: 746 ]
[2] = biological target: T1, Ubiquitin-conjugating enzyme E2 N (Homo sapiens, UniProt P61088); assay type: functional;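 further: Dose-response confirmation in a TR-FRET assay detecting UBC13-driven polyubiquitin chain formation, inhibition measured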
T1 sequence (P61088 whole entry): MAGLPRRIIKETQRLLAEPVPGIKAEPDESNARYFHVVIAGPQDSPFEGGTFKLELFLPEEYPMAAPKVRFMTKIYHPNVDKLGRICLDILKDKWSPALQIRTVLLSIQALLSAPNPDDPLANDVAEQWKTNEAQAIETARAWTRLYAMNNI

[3] = CellTiter-Glo luminescence survival assay, SW480 colon tumor line, concentration-response curve, half-maximal inhibitory concentration (AID 1117338); assay type: functional
[4] = RKO cell viability reduction, dose response, CellTiter-Glo luminescence (AID 1117322); assay type: functional
[5] = cytotoxicity toward HCT116 cells – cell-based, CellTiter-Glo luminescence, IC50, dose response (AID 1117332); assay type: functional; conditions: HCT-116
[6] = SNU-C1 cell viability reduction, dose response, CellTiter-Glo luminescence (AID 1117323); assay type: functional, cell-based
[7] = cytotoxicity toward Colo320 cells – cell-based, CellTiter-Glo luminescence, IC50, dose response (AID 1117334); assay type: functional; conditions: COLO 320
[8] = cytotoxicity toward HT-29 cells – cell-based, CellTiter-Glo luminescence, IC50, dose response (AID 1117330); assay type: functional
[9] = Reduced DLD-1 viability, concentration-response, CellTiter-Glo luminescence (AID 1117352); assay type: functional
[10] = HCT116 cell viability decrease, GSK3B pretreatment – CellTiter-Glo, IC50, dose response (AID 1117339); assay type: functional; conditions: HCT-116
[11] = Dd2 parasite growth inhibition in erythrocytes – SYBR Green, dry powder samples, set 9, dose response (AID 1159568); assay type: functional, cell-based
[12] = biological target: Glyceraldehyde-3-phosphate dehydrogenase (Homo sapiens, UniProt P04406)
[13] = biological target: T2, Bcl-2-related protein A1 (Mus musculus, UniProt Q07440); experiment: small-molecule antagonists of Bfl-1/BH3 interaction – biochemical, TR-FRET, mouse Bfl-1, confirmation (AID 621);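 further: TR-FRET binding of GST-Bfl-1 to FITC-labelled Bid peptide via terbium antibody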
T2 sequence (Q07440 whole entry): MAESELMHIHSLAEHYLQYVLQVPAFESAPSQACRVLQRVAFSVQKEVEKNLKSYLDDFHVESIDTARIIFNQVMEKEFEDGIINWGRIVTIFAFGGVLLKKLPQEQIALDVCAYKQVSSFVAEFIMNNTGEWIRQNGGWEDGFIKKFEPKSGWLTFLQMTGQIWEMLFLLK

[14] = biological target: T2, Bcl-2-related protein A1; experiment: Bfl-1 binding inhibitors, SAR follow-up, biochemical, fluorescence polarization (AID 1070)
[15] = Luminescence Cell-Based Dose Response to Identify Activators of 5'UTR Stem-Loop Driven Prion Protein mRNA Translation in H4-C Neuroglioblastoma Cells. [Related pubchem assays: 1829 (Project Summary), 1814 (Primary HTS)]; assay type: functional
[16] = Luminescence Cell-Based Dose Confirmation HTS to Identify Activators of 5'UTR Stem-Loop Driven Alpha-Synuclein mRNA Translation in H4 Neuroglioblastoma Cells. [Related pubchem assays: 1829 (Project Summary), 1814 (Primary HTS)]; assay type: functional
[17] = Luminescence Cell-Based Dose Response HTS to Identify Activators of Luciferase Translation or Activity in H4 […] Cells. [Related pubchem assays: 1829 (Project Summary), 1814 (Primary HTS)]; assay type: functional
[18] = tested on: H4; experiment: Luminescence Cell-Based Dose Response HTS to Identify Activators of 5'UTR Stem-Loop Driven Prion Protein mRNA Translation in H4 Neuroglioblastoma Cells. [Related pubchem assays: 1829 (Project Summary), 1814 (Primary HTS)]; assay type: functional; conditions: Homo sapiens
[19] = Luminescence Cell-Based Dose Response to Identify Activators of Luciferase Translation or Activity in H4-C Neuroglioblastoma Cells. [Related pubchem assays: 1829 (Project Summary), 1814 (Primary HTS)]; assay type: functional
[20] = Luminescence Cell-Based Dose Confirmation to Identify Activators of 5'UTR Stem-Loop Driven Alpha-Synuclein mRNA Translation in H4 Neuroglioblastoma Cells. [Related pubchem assays: 1829 (Project Summary), 1814 (Primary HTS)]; assay type: functional
[21] = tested on: HT-1080; experiment: HT1080 cell viability loss – fluorescence readout (AID 620); assay type: functional, cell-based; conditions: Homo sapiens
[22] = tested on: Jurkat; experiment: blockers of NF-kB activation in T cells – Jurkat, luciferase reporter, luminescence, B- and T-cell, dose response (AID 489004); assay type: functional, cell-based; conditions: Homo sapiens;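 further: NF-kB luciferase reporter Jurkat cells stimulated with PMA plus ionomycin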
[23] = HEK-293T viability loss, compound-treated – cell-based, uHTS hits, cytotoxicity control for B/T-cell NF-kB inhibitor project, dose response (AID 489019); assay type: functional;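 further: IC50 reflects cytotoxicity as loss of cell viability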
[24] = biological target: 26S proteasome non-ATPase regulatory subunit 14 (Homo sapiens, UniProt O00487); experiment: inhibition of proteasome subunit RPN11 – biochemical, fluorescence polarization, uHTS hits, confirmation (AID 602368); assay type: functional
[25] = biological target: 72 kDa type IV collagenase (Homo sapiens, UniProt P08253); experiment: Dose Response validation of uHTS RPN11 inhibitor hits using a MMP-2 Fluorescence assay.; assay type: functional
[26] = biological target: Prothrombin (Bos taurus, UniProt P00735); experiment: thrombin protease inhibitors – biochemical, fluorescence polarization, uHTS hits, dose response (AID 602369); assay type: functional
[27] = tested on: Vero; experiment: mammalian cell viability reduction – secondary assay, cytotoxicity control for West Nile virus antiviral project, dose response (AID 1650); assay type: functional; conditions: Chlorocebus sabaeus
[28] = tested on: Vero; experiment: cells; assay type: functional, cell-based; conditions: Chlorocebus sabaeus
[29] = tested on: Vero; experiment: cells; assay type: functional; conditions: Chlorocebus sabaeus
[30] = luciferase reporter signal suppression in cells – H4 neuroglioma cells, luminescence, dose response (AID 1990); assay type: functional, cell-based
[31] = tested on: BJ; experiment: BJ-TERT fibroblast viability loss – cell-based, RAS-independent, luminescence, dose response (AID 1933); assay type: functional; conditions: Homo sapiens
[32] = Luminescence Cell-Based Dose Response HTS to Identify Inhibitors of 5'UTR Stem-Loop Driven Prion Protein mRNA Translation in H4 Neuroglioblastoma Cells. [Related pubchem assays: 1827 (Project Summary), 1813 (Primary HTS)]; assay type: functional
[33] = alpha-synuclein stem-loop luciferase translation blockers – H4 neuroglioma cells, luminescence, confirmation (AID 1988); assay type: functional, cell-based
[34] = tested on: BJ; experiment: cells; assay type: functional, cell-based; conditions: Homo sapiens
[35] = tested on: BJ; experiment: BJ-TERT-LT-ST fibroblast viability loss – cell-based, RAS-independent, luminescence, dose response (AID 1935); assay type: functional; conditions: Homo sapiens;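 further: BJ fibroblasts immortalized with TERT plus LT and ST oncogenes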
[36] = DRD fibroblast viability loss – cell-based, non-viral oncogenic, luminescence, dose response (AID 1934); assay type: functional; conditions: Homo sapiens
[37] = biological target: Voltage-dependent T-type calcium channel subunit alpha-1H (Homo sapiens, UniProt O95180); assay type: functional;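 further: channel activity triggered by adding a high calcium stimulation buffer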
[38] = tested on: BJ; experiment: growth inhibition of engineered Ras-driven BJ cells – cell-based, alamar blue fluorescence, cherrypicked samples, dose response (AID 2631); assay type: functional; conditions: Homo sapiens;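 further: confirmatory dose-response assay in RAS-dependent BJ fibroblasts engineered with TERT, LT and ST, with cytotoxicity read by fluorescence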
[39] = reduction of Shn3 3'UTR-driven luciferase in osteoblasts – cell-based, Clone20 osteoblasts, firefly luciferase, cherry-picked, dose response (AID 624132); assay type: functional;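 further: firefly luciferase luminescence from reporter carrying the Shn3 3'UTR in osteoblasts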
[40] = loss of viability in HepG2 cells – cell-based, CellTiter-Glo, cherry-picked, cytotoxicity control for Shn3 inhibitor project, dose response (AID 624134); assay type: functional
[41] = non-specific 3'UTR reporter inhibition in Clone20-Shn3RL – cell-based, Renilla luciferase, cherry-picked, counter-screen for Shn3 inhibitor project, dose response (AID 624133); assay type: functional
[42] = biological target: T3, Fatty acid synthase (Homo sapiens, UniProt P49327); experiment: inhibition of human FAS-TE enzyme activity – biochemical, endpoint fluorescence intensity, uHTS hits, dose response (AID 624327); assay type: functional;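 further: fluorescence from hydrolysis of an O-methyl fluorescein acyl ester substrate by the enzyme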
[43] = biological target: T3, Fatty acid synthase; experiment: inhibition of human FAS-TE enzyme activity – biochemical, kinetic fluorescence intensity, dose response (AID 624326); assay type: functional;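 further: rate of fluorescence rise from hydrolysis of a fluorogenic O-methyl fluorescein ester substrate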
[44] = biological target: Cytochrome P450 2C19 (Homo sapiens, UniProt P33261); experiment: Cytochrome panel assay with activity outcomes. Panel member name: p450-cyp2c19 Compounds with AC50 equal or less than 10 uM are considered active; assay type: functional; conditions: read-out: AC50
[45] = biological target: T4, Cytochrome P450 1A2 (Homo sapiens, UniProt P05177);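 further: PubChem cytochrome P450 panel assay, CYP1A2 panel member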
T4 sequence (P05177 whole entry): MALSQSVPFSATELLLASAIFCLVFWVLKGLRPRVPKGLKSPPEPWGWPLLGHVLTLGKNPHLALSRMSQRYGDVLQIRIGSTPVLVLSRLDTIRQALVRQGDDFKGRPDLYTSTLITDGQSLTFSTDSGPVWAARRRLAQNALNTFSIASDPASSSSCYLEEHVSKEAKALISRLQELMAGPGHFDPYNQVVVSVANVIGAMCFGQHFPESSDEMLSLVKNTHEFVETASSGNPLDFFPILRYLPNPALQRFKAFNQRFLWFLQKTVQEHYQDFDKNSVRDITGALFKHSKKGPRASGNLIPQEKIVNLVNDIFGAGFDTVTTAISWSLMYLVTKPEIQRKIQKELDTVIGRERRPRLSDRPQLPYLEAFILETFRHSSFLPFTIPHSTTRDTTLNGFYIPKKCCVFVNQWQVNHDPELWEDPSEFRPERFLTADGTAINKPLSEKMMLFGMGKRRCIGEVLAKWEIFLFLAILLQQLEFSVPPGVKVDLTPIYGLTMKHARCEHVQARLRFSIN

T3 sequence (P49327 whole entry): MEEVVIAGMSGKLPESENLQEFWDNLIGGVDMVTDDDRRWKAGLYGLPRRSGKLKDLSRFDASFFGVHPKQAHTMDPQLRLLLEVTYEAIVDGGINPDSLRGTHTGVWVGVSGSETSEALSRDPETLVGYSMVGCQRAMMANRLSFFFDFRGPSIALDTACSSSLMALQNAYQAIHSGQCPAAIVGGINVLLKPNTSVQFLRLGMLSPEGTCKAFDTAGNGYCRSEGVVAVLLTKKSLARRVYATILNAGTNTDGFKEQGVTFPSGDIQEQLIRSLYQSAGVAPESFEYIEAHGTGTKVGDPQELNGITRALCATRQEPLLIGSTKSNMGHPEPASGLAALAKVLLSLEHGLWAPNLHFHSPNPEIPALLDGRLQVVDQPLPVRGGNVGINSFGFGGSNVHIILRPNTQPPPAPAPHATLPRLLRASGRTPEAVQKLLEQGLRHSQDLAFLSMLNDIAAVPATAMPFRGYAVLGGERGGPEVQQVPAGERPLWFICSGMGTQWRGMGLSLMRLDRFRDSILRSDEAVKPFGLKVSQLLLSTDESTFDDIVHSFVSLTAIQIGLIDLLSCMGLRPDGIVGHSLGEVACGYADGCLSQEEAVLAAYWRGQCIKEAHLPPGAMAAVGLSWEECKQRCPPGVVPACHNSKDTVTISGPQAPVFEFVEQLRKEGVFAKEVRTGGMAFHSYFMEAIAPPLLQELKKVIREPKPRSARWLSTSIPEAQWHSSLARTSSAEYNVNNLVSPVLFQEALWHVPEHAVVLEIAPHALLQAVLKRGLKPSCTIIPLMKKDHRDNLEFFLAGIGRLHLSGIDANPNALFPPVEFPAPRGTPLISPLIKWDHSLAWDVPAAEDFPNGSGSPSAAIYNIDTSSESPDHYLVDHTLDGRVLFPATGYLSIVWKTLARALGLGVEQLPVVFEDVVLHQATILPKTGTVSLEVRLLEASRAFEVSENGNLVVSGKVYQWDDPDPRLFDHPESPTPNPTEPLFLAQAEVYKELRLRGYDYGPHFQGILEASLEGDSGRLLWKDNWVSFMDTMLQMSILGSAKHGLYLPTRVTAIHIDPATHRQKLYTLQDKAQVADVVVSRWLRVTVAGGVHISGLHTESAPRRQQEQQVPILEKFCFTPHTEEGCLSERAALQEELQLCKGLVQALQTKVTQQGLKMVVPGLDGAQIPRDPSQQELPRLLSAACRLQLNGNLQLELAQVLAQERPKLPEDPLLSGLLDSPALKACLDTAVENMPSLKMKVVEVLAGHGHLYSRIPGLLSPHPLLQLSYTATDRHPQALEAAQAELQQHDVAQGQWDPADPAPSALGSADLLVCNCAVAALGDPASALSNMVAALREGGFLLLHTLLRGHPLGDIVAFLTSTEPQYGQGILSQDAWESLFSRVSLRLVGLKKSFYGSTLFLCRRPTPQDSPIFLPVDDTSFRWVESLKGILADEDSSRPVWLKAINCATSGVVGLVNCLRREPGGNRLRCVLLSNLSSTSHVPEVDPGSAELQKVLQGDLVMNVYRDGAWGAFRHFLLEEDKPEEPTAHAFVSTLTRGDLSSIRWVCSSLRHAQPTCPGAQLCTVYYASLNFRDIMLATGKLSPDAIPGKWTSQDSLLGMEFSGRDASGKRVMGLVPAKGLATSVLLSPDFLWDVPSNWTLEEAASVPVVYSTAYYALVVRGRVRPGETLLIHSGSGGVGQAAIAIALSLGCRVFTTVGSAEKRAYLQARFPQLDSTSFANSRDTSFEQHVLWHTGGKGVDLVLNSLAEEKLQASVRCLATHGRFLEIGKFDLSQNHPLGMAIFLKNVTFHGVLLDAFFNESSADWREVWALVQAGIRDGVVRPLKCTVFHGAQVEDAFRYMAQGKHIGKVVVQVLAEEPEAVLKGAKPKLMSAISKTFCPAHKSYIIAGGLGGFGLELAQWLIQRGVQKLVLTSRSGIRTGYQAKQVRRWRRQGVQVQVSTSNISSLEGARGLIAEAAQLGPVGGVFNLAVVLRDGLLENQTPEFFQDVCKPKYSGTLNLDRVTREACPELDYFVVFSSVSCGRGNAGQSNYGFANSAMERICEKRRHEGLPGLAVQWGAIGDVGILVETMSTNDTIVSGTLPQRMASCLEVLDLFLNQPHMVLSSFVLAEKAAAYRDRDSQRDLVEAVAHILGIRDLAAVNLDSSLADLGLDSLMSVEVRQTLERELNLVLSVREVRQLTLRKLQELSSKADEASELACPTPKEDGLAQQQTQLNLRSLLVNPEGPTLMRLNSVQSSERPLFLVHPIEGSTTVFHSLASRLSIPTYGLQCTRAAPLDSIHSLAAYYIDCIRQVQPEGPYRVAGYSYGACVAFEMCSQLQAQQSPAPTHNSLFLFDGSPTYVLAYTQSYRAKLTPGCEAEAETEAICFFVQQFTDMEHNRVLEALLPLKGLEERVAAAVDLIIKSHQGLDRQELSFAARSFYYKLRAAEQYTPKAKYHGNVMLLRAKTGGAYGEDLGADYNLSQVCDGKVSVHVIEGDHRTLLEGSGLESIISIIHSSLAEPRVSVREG
Chain of Mitogen-activated protein kinase 10 (P53779 whole entry): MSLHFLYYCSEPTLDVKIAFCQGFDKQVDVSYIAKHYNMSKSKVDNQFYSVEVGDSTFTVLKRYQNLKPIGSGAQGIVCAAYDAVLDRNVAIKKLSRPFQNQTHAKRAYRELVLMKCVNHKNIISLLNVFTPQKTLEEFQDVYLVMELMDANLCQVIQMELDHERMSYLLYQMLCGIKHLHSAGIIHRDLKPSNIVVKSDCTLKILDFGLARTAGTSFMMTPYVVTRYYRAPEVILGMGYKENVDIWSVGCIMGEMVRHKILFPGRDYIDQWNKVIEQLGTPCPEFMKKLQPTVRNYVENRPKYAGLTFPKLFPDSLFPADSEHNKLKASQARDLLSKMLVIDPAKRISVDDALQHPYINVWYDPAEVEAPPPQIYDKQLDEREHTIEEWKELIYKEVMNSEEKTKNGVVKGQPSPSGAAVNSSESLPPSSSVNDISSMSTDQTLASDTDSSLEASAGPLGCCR
Chain of 72 kDa type IV collagenase (P08253 whole entry): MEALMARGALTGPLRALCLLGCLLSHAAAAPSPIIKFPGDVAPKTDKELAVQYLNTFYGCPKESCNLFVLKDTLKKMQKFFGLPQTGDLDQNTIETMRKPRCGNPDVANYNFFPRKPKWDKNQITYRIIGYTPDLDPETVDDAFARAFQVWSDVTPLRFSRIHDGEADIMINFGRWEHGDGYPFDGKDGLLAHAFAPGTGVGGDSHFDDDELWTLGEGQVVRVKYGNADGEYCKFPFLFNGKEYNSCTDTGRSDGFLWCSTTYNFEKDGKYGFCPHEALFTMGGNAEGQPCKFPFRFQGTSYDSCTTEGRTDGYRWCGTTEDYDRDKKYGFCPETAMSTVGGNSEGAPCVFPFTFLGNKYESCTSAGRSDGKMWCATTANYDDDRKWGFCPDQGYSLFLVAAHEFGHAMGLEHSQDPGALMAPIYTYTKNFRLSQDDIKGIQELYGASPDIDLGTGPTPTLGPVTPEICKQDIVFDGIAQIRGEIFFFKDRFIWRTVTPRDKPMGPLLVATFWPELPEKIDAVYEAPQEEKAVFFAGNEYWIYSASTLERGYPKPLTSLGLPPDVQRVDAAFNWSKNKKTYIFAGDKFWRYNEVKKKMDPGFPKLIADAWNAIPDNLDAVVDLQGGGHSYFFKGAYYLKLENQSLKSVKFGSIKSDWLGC
Chain of 26S proteasome non-ATPase regulatory subunit 14 (O00487 whole entry): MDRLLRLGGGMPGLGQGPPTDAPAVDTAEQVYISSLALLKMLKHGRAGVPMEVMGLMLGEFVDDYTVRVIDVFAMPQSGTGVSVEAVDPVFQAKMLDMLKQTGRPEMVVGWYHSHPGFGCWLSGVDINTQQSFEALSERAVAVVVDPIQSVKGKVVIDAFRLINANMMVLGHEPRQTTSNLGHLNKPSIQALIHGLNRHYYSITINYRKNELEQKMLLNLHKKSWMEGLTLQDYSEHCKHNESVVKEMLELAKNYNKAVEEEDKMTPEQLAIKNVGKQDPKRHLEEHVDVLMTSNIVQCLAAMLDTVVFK
Chain of Cytochrome P450 2C19 (P33261 whole entry): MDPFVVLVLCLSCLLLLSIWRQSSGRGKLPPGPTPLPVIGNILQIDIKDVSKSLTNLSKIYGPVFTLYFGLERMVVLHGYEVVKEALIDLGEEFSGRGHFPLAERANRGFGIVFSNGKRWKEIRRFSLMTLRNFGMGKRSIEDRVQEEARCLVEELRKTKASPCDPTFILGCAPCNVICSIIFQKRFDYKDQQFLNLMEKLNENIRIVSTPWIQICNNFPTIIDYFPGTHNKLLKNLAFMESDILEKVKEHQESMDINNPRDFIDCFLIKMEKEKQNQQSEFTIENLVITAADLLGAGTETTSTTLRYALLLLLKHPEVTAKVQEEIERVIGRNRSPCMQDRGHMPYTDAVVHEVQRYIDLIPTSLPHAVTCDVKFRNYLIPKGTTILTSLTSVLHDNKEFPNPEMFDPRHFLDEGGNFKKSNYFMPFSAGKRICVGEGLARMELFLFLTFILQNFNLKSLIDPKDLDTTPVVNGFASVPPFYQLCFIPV
Chain of Glyceraldehyde-3-phosphate dehydrogenase (P04406 whole entry): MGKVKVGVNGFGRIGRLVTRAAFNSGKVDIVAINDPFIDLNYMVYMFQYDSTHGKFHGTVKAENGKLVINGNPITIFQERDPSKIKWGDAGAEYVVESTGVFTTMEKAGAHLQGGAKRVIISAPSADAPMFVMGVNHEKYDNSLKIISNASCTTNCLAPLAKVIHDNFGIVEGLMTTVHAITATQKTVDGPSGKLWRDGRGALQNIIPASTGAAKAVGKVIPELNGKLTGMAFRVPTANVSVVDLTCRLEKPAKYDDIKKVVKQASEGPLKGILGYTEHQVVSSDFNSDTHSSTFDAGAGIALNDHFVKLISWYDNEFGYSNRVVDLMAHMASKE

For CCOC(=O)CSc1nc2ccccc2c(=O)n1CCCCCC(=O)NCc1ccco1, the IC50 [1] was 43.3 µM (not active) and the IC50 [2] was > 20 µM (inactive).

In the case of Cc1ccc(C(=O)c2cc(O)c(O)c([N+](=O)[O-])c2)cc1 [TOLCAPONE], the IC50 [3] is reported as 4.64 µM (active), the IC50 [4] is reported as 1.88 µM (active) and the IC50 [5] is reported as 2.29 µM (active). The IC50 [6] was 4.54 µM (active), the IC50 [7] was 2.5 µM (active) and the IC50 [8] was > 20 µM (inactive). The IC50 [9] was 6.14 µM (inactive) and the IC50 [10] was 0.265 µM (active).

With COc1ccccc1S(=O)(=O)N(C)C[C@@H]1OCc2ccccc2-c2ccccc2C(=O)N([C@H](C)CO)C[C@@H]1C the AC50 [11] was 4.71 µM (active).

For CC1CN(C2=C(Cl)C(=O)N(c3ccc(Cl)c(Cl)c3)C2=O)CCN1c1ccccc1 (stereo unspecified), the IC50 [12] was > 100 µM (not active), the IC50 [13] was 19.3 µM (active) and the IC50 [14] was > 100 µM (not active).

In the case of C[C@@H]1CN([C@@H](C)CO)C(=O)c2cc(NC(=O)Nc3ccc4c(c3)OCO4)ccc2O[C@@H](C)CCCCO[C@H]1CN(C)S(=O)(=O)c1ccccc1, the AC50 [11] is reported as 4.34 µM (active).

With O=C1c2ccccc2C(=O)C1C(=O)C(c1ccccc1)c1ccccc1 [DIPHENADIONE] the IC50 [3] was 0.536 µM (active), the IC50 [4] was 1.59 µM (active) and the IC50 [5] was 0.531 µM (active). For the same molecule, the IC50 [6] was 4.01 µM (active), the IC50 [7] was 0.621 µM (active) and the IC50 [8] was 4.48 µM (active). The IC50 [9] was 1.33 µM (active) and the IC50 [10] was 0.567 µM (active).

With CCOC(=O)c1csc(-c2ccc3c(c2)CCO3)n1 the EC50 [15] was > 12 µM (not active), the EC50 [16] was 0.127 µM (active) and the EC50 [17] was < 0.1 µM (active). For the same molecule, the EC50 [18] was 0.552 µM (active), the EC50 [19] was > 12 µM (not active) and the EC50 [20] was > 12 µM (not active).

For N#Cc1c(NC(=O)CSc2nc[nH]n2)sc2c1CCCC2, the EC50 [21] was > 50 µM (not active), the IC50 [22] was 0.64 µM (active) and the IC50 [23] was > 80 µM (inactive).

In the case of COC(=O)c1c(-c2cccnc2)csc1NC(=O)c1cc(C)on1, the EC50 [15] is reported as 0.321 µM (active), the EC50 [17] is reported as < 0.1 µM (inconclusive) and the EC50 [18] is reported as 19.9 µM (inconclusive). For the same molecule, the EC50 [19] was 0.387 µM (active), the EC50 [20] was 0.435 µM (active) and the IC50 [24] was 29.6 µM (active). For the same molecule, the IC50 [25] was > 100 µM (inactive) and the IC50 [26] was 48.3 µM (active).

With COc1ccc(CCNC(=O)/C=C/c2ccc3ccccc3n2)cc1OC the CC50 [27] was 12 µM (active), the IC50 [28] was > 25 µM (active) and the CC50 [29] was 16.4 µM (active).

For CCn1cc(C(=O)NCc2ccco2)c(=O)c2cc(S(=O)(=O)N3CC(C)CC(C)C3)ccc21 (stereo unspecified), the EC50 [30] was 9.5 µM (active), the EC50 [31] was > 150 µM (not active) and the EC50 [32] was 0.503 µM (active). The CC50 [27] was 32.1 µM (active), the EC50 [33] was 10.9 µM (active) and the EC50 [34] was 5.24 µM (active). For the same molecule, the EC50 [35] was > 150 µM (inconclusive), the EC50 [36] was 7.64 µM (active) and the EC50 [37] was 2.49 µM (active). The EC50 [38] was > 133 µM (inactive), the AC50 [39] was 0.778 µM (active) and the AC50 [40] was 4.32 µM (active). The AC50 [41] was 1.67 µM (active), the IC50 [42] was 4.25 µM (active) and the IC50 [43] was 4.14 µM (active).

With Cc1cc(C(F)F)n2ncc(C(=O)NCc3ccccc3C(F)(F)F)c2n1 the IC50 [1] was 26.2 µM (not active), the AC50 [44] was 6.31 µM (inconclusive) and the AC50 [45] was 0.708 µM (inconclusive).
